# PMC3770646, “Isolation of an Orally Active Insecticidal Toxin from the Venom of an Australian Tarantula” (PLoS ONE, 2013)
# Where two headings read alike, the source gives them in different places. Where a SMILES comes first, the peptide text is derived from it. Bridges are numbered along the chain shown (N, C = ends).
# Experiments:
# H. armigera = conditions: ref [61], cited from earlier work
# Description: Table 2 Comparison of OAIP-1 with pyrethroid insecticides. | column: Oral LD50 (nmol/g)
# Helicoverpa armigera = experiment: Assay of synergism of imidacloprid and sOAIP-1 in agar diet; assay type: in vivo; conditions: H. armigera fed 100 pmol of the single insecticide in agar diet, mean ±SEM of three replicates of 10
# Procedure: (§1) For feeding assays, an agar-based insect diet was created based on literature information (Table S1). Instead of using a separate preparation as a vitamin supplement, the commercially available children's vitamin Pentavite (Bayer, Leverkusen, Germany) was added after the agar had cooled below 65°C. Mealworms were fed 100 µL of the agar diet, with or without 20 µL toxin (or water for untreated controls). For the choice test, the same size Petri dish was divided in half and 50 µL of either toxin-treated or untreated agar was pipetted onto each half and mortality was recorded after 48 h. Cotton bollworms (Helicoverpa armigera, Lepidoptera: Noctuidae) were fed 5 µL toxin (or water for untreated controls) in 20 µL of agar diet, and maintained in 12-well tissue culture dishes. For assays of synergism using 100 pmol imidacloprid (Sigma-Aldrich) and 100 pmol sOAIP-1, 20 µL of one toxin or 10 µL of each toxin was incorporated into the agar diet for H. armigera. After all the treated diet was consumed, untreated diet was supplied ad libitum.
# In all experiments, the mortality of untreated insects was used to correct the data for mortality due to injection of toxin or incorporation in the diet. […]
# [1] = system: mealworms (larval Tenebrio molitor); experiment: Feeding choice test, toxin-treated and untreated agar; assay type: in vivo
# Procedure: as §1
# In addition to toxicity assays, a choice test was conducted to determine whether sOAIP-1 is repellent. […] Conversely, if the toxin-treated agar was preferentially consumed, it might indicate that sOAIP-1 acts as an attractant.
# [2] = In vitro stability in undiluted insect hemolymph; assay type: in vitro ADME, Helicoverpa armigera; conditions: undiluted H. armigera hemolymph, 30 µg peptide in 200 µL, ambient temperature (23°C), dark
# Procedure: Fourth-instar H. armigera larvae were decapitated and the gut was removed using forceps. The carcasses were spun in a benchtop centrifuge (14,000 g for 10 min) to separate the hemolymph from exoskeleton. For each time point, 200 µL of undiluted hemolymph was mixed with 30 µg of sOAIP-1. The hemolymph/sOAIP-1 solution was maintained in the dark at room temperature, and immediately before RP-HPLC analysis the hemolymph/sOAIP-1 solution was again spun in a benchtop centrifuge (14,000 g for 10 min). After centrifugation, 30 µg of a control peptide, ω-HXTX-Hv1a, was added to aid quantification and the sample was filtered using a […] filter. The toxins were separated by RP-HPLC using a linear acetonitrile gradient (5–40% over 40 min), and the identity of each toxin was confirmed using mass spectrometry. The percentage of intact sOAIP-1 present at each time point was determined by comparing the area of the sOAIP-1 peak to that at zero time, both measured relative to the area of the ω-HXTX-Hv1a peak.
# [3] = system: mealworms (larval Tenebrio molitor); experiment: Feeding assay, toxin in agar diet fed to mealworms; assay type: in vivo; conditions: corrected for control mortality, three replicates of 10
# Procedure: Chicken feed was provided ad libitum for mealworm food. A Whatman filter paper saturated with distilled water was used to maintain humidity in all mealworm experiments except feeding assays, which used the synthetic orally active insecticidal peptide 1 (sOAIP-1) in the agar diet described below. The agar diet allowed a homogenous mixture of toxin and diet to be prepared so preferential feeding on untreated diet would not be possible. All insects were maintained at 24.5°C in the dark at ambient humidity in sterile Petri dishes.
# as §1, with “For assays of synergism using 100 pmol imidacloprid (Sigma-Aldrich) and 100 pmol sOAIP-1, 20 µL of one toxin or 10 µL of each toxin was incorporated into the agar diet for H. armigera. After all the treated diet was consumed, untreated diet was supplied ad libitum.” left out
# [4] = system: mealworms (larval Tenebrio molitor); experiment: Injection of toxin into mealworms; assay type: in vivo; conditions: injection into metathoracic pleurite, corrected for control mortality, three replicates of 10
# Procedure: Termites were fed a 20% α-cellulose matrix (Sigma-Aldrich, St. Louis, MO) mixed with water; the toxin was dissolved in water, and 20 µL was added to the cellulose matrix to a final concentration of 350 nmol/g, and then pipetted into Petri dishes. After the cellulose matrix had dried (to prevent termites from drowning in wet bait), nine worker termites and one soldier termite were added to each dish; each toxin dose was replicated three times. As a comparison, toxins were also injected into mealworms at a concentration of 350 nmol/g in three replicates of 10 insects.
# Mealworms were purchased from Pisces Enterprises (Kenmore, QLD, Australia). Insects between 3rd and 4th instar (∼180 mg/individual) were used. For each mealworm, 2.6 µL of toxin diluted in ultrapure water was injected into the metathoracic pleurite. Injections were performed using a 29.5 gauge insulin syringe (B–D Ultra-Fine, Terumo Medical Corporation, Elkton, MD). Three replicates of 10 insects were used for each toxin concentration, and the same number of control insects were injected with ultrapure water and maintained under the same conditions.
# Chicken feed was provided ad libitum for mealworm food. […] All insects were maintained at 24.5°C in the dark at ambient humidity in sterile Petri dishes. […]
# [5] = pyrethroid-resistant strain BK99R9 (R)
Structure (SMILES),Oral LD50 (H. armigera; [5]) [nmol/g],Oral LD50 (H. armigera; susceptible strain BK77 (S)) [nmol/g],mortality at 48 h (Helicoverpa armigera) [%],also measured
CC1(C)[C@H](C(=O)O[C@H](C#N)c2cccc(Oc3ccccc3)c2)[C@@H]1C=C(Br)Br [Deltamethrin],0.46,0.35,,
CC(C)C(C(=O)OC(C#N)c1cccc(Oc2ccccc2)c1)c1ccc(Cl)cc1 (centres unmarked) [Fenvalerate],41.9,7.8,,
CCOc1ccc(C(C)(C)COCc2cccc(Oc3ccccc3)c2)cc1 [Etofenprox],55.9,0.31,,
O=[N+]([O-])NC1=NCCN1Cc1ccc(Cl)nc1 [imidacloprid],,,31±3,
"CC[C@H](C)[C@@H]1NC(=O)[C@@H]2CSSC[C@H](NC(=O)[C@@H](N)CC(=O)O)C(=O)NCC(=O)N[C@@H](Cc3c[nH]cn3)C(=O)N[C@@H](CC(C)C)C(=O)N[C@@H](Cc3c[nH]cn3)C(=O)N[C@@H](CC(=O)O)C(=O)N3CCC[C@H]3C(=O)N[C@H]3CSSC[C@H](NC(=O)[C@H](CCC(N)=O)NC(=O)[C@H](CC(C)C)NC(=O)CNC1=O)C(=O)N[C@@H](CCCNC(=N)N)C(=O)N[C@@H](Cc1ccc(O)cc1)C(=O)NCC(=O)N[C@@H](CCCCN)C(=O)N[C@H](C(=O)N[C@@H](CC(C)C)C(=O)N[C@H](C(=O)N[C@@H](CCCNC(=N)N)C(=O)O)C(C)C)CSSC[C@H](NC(=O)[C@H]([C@@H](C)O)NC(=O)[C@H](CCCNC(=N)N)NC(=O)[C@H](Cc1c[nH]cn1)NC(=O)CNC(=O)[C@@H]1CCCN1C(=O)[C@H](CCCNC(=N)N)NC(=O)[C@H](CC(=O)O)NC(=O)[C@H](CC(N)=O)NC(=O)[C@@H]1CCCN1C3=O)C(=O)N2 [sOAIP-1] (H-DCGHLHDPCPNDRPGHRTCCIGLQCRYGKCLVR-OH; disulfide 2-20, 9-25, 19-30; N-terminus and C-terminus assumed)",,,4±3,"mortality at 48 h in choice test ([1]; mealworms offered toxin-treated and untreated agar, 1 pmol toxin, three replicates of 10): no mortality; repellent or attractant effect ([1]; mealworms, choice test compared with non-choice test): neither a repellent that repels insects nor an attractant; remaining at 24 h ([2]; cerebrospinal or other body fluid, 24 h, RP-HPLC peak area relative to ω-HXTX-Hv1a, read-out: remained intact): ~40%; metabolised at 72 h ([2]; cerebrospinal or other body fluid, 72 h, RP-HPLC peak area relative to ω-HXTX-Hv1a, read-out: peptide degraded): 90%; remained intact ([2]; one-week incubation, RP-HPLC): none remained intact; LD50, oral administration [3]: 170.5 ± 0.2 nmol/g; LD50, injected toxin [4]: 1.84 ± 0.8 nmol/g"
Cc1c(COC(=O)[C@@H]2[C@H](/C=C(\Cl)C(F)(F)F)C2(C)C)cccc1-c1ccccc1 (racemic) [Bifenthrin],20.6,1.1,,
